# Several values for one entry are separate records, joined by “and”; a condition that tells them apart may be missing. Equal values may be shown once.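 Method: 48-hour compound exposure of cells in 96-well plates, five concentrations, linear interpolation of endpoints. The concentration for 50% growth inhibition is given as GI50. TGI: total growth inhibition.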
# How the values were obtained:
# Test in all cases: NCI-60 cell line screen, 48 h
# [1] = tested on: NCI/ADR-RES ovarian
# [2] = tested on: T-47D breast
# [3] = tested on: DLD-1 colon
# [4] = tested on: HOP-18 NSCLC
# [5] = tested on: M19-MEL melanoma
# [6] = tested on: SNB-78 CNS
# [7] = tested on: XF 498 CNS
# [8] = tested on: MDA-N
# [9] = tested on: RXF-631 renal
Structure (SMILES),GI50 [1],TGI [1],TGI [2],TGI [5],TGI [6],further results
CC/C=C\C[C@H]1C/C=C2/C(=O)C=C[C@@H]2C/C=C\CCCC(=O)O1,0.405 µM,7.32 µM,9.33 µM,,,GI50 [2]: 1.21 µM
C=CCc1ccc(Oc2cc(CC=C)c3c(c2O)O[C@@H](CO)[C@H]3c2ccc(O)c(-c3cc(CC=C)ccc3O)c2)cc1,,,,> 100 µM,> 100 µM,TGI [3]: > 100 µM; TGI [4]: > 100 µM
CCN(CC)c1ccc(N=Nc2ccc(-c3nc4ccc[n+](C)c4s3)cc2)cc1,,,,10.6 µM,31.6 µM,TGI [4]: 31.3 µM
COc1cc(/C=C/c2ccc(OC)c(OC)c2)cc(OC)c1,,60 µM,> 100 µM,,,
O=C1/C(=C/c2cccc([N+](=O)[O-])c2)COc2ccc(Br)cc21,,,,> 100 µM,> 100 µM,TGI [3]: > 100 µM; TGI [4]: > 100 µM; TGI [7]: > 100 µM
CC1=CC(C/C(C)=C/COc2ccc3ccc(=O)oc3c2)OC1=O (stereo unspecified),,> 100 µM,> 100 µM,,,TGI [8]: > 100 µM
O=C1NC(=O)C(CC2CCCCCCCCCCC2=O)C(=O)N1 (stereo unspecified),,> 100 µM,,,,TGI [8]: > 100 µM
COc1c(CCl)cc(-c2cc(=O)c3ccccc3s2)cc1CCl,,> 100 µM,4.03 µM,,,TGI [8]: > 100 µM
Cc1ccc2[nH]c(O)c(N=Nc3ccc(S(N)(=O)=O)cc3)c2c1,18.2 µM,> 25 µM,> 25 µM,,,GI50 [2]: 15.3 µM
CCn1c(-c2ccc(OC(C)=O)cc2)c(C)c2cc(OC(C)=O)ccc21,,> 100 µM,60.5 µM,,,TGI [8]: 77.9 µM
O=C1CC2c3ccccc3CCC2c2ccccc21 (stereo unspecified),,,> 100 µM,,,TGI [8]: 21.4 µM
CC1=C[C@H]2c3c(c(O)c(O)c4oc(-c5ccccc5)cc(=O)c34)[C@H](c3cc(O)c(O)c4oc(-c5ccccc5)cc(=O)c34)[C@H]2C(C)(C)C1,3.55 µM,25.3 µM,17.1 µM,,,GI50 [2]: 1.02 µM
COc1ccc(C(=O)COc2ccc(/C=C3\COc4ccc(OC)cc4C3=O)cc2)cc1,12 µM,32.3 µM,96.6 µM,,,GI50 [2]: 19.1 µM
CSC(C1c2ccccc2N(c2ccc(C)cc2)c2[nH]c(=O)n(C)c(=O)c21)S(=O)(=O)c1ccc(C)cc1 (stereo unspecified),,,,> 100 µM,> 100 µM,TGI [3]: > 100 µM; TGI [7]: > 100 µM
O=C(c1ccccc1)C1OC12C(=O)Nc1ccccc12 (stereo unspecified),,,,> 100 µM,> 100 µM,TGI [3]: > 100 µM; TGI [9]: > 100 µM; TGI [7]: > 100 µM
O=C1NC2OC(C(O)CO)C(O)C2O1 (stereo unspecified),,,,> 100 µM,,TGI [4]: > 100 µM; TGI [7]: > 100 µM
O=C(CCC1OCCO1)Nc1cc(NCc2ccccc2)ccc1OCc1ccccc1,,> 100 µM,> 100 µM,,,
O=C1CSC(c2ccc(Cl)cc2Cl)N1c1ccc(F)cc1 (stereo unspecified),18.8 µM,35.5 µM,,,,
N#CC1CC2(C1)OCCS2 (stereo unspecified),,,,,> 100 µM,TGI [3]: > 100 µM
O=C(O)C1C(Br)(c2ccccc2)C1(Br)c1ccccc1 (stereo unspecified),,> 100 µM,> 100 µM,,,
COc1cc(C(=O)c2cc(C)c3[nH]c4ccc(C)cc4c3c2C)cc(OC)c1OC,< 0.01 µM,> 32.9 µM,> 100 µM,,,GI50 [2]: 0.287 µM

Structure (SMILES),GI50 [1],TGI [1],TGI [2],TGI [5],TGI [6],further results
CC(C)C[C@H](NC(=O)/C=C/Cn1ccc2ccccc2c1=O)B(O)O,90.8 µM,> 100 µM,15.3 µM,,,GI50 [2]: 2.68 µM
NC(=O)NCc1c(C(N)=O)ncn1Cc1ccccc1,,,,> 100 µM,> 100 µM,TGI [3]: > 100 µM; TGI [4]: > 100 µM; TGI [7]: > 100 µM
CC(C)(C[C@H]1CN(S(=O)(=O)c2cccc(C(F)(F)F)c2)c2cc(-c3cc(F)cc(OC(F)F)c3)ccc2O1)C(=O)O,5.07 µM,30.9 µM,29.2 µM,,,GI50 [2]: 5.19 µM
C1C[OH+]CC[OH+]CC[OH+]CC[OH+]CC[OH+]1.[Cl-].[V],,,,,,GI50 [3]: > 100 µM; TGI [3]: > 100 µM; GI50 [4]: 60.6 µM; TGI [4]: > 100 µM
O=C1OC2CCCC[C@@H]2C2C[C@]34CCCCC3[C@@H](C(=O)O4)C12 (stereo partly specified),,,,> 100 µM,> 100 µM,TGI [3]: > 100 µM; TGI [4]: > 100 µM; TGI [7]: > 100 µM
Cc1ccc(-c2nc3ccc(Cl)cc3c(=O)n2N2C(=O)CSC2c2ccccc2Cl)cc1 (stereo unspecified),8.87 µM,> 100 µM,> 100 µM,,,GI50 [2]: 3.82 µM
Cc1c(C(=O)/C=C/c2ccccc2)[n+](=O)c2ccccc2n1[O-],,,,30 µM,> 100 µM,TGI [3]: 27.5 µM; TGI [4]: 57 µM; TGI [7]: 24.6 µM
COc1ccc2nc(NC(=O)C(=O)C(C#N)c3ccc([N+](=O)[O-])cc3)sc2c1 (stereo unspecified),,,,> 100 µM,> 100 µM,TGI [3]: > 100 µM; TGI [4]: > 100 µM
O=C(/C=C\c1ccc(NCc2ccc(C(=O)O)cc2)cc1)CCl,17.8 µM,39.6 µM,12.5 µM,,,GI50 [2]: 2.6 µM
O=C1CSC(/C(=N/Nc2ccccc2)c2nc3ccccc3[nH]2)=N1,,,,> 100 µM,> 100 µM,TGI [3]: > 100 µM; TGI [7]: 73.4 µM
Nc1ccc(-c2nc3ccc(Cc4ccc5nc(-c6ccc(N)cc6)[nH]c5c4)cc3[nH]2)cc1,> 100 µM,> 100 µM,,,,
CCNC(=O)Nc1cccc(NC(=O)NCC)n1,,,> 100 µM,,,TGI [8]: > 100 µM
COc1cc(NC(C)CCCN)c2nccc(C)c2c1 (stereo unspecified),,> 100 µM,,,,TGI [8]: 33.7 µM
N#Cc1cccnc1Cl,,,,> 100 µM,> 100 µM,TGI [3]: > 100 µM; TGI [4]: > 100 µM; TGI [9]: > 100 µM; TGI [7]: > 100 µM
Cn1c2ccccc2c(=O)c2ccc(Cl)cc21,,,> 10 µM,,,TGI [8]: > 10 µM
COc1cc(/C=C/c2cc(/C=C/c3ccc(O)c(OC)c3)n(C(=O)Nc3ccc(C)cc3C)n2)ccc1O,0.335 µM,2.66 µM,,,,
C[C@H](O)C(=O)N1CCC(CCn2c(Sc3cc4c(cc3Br)OCO4)nc3c(N)ncnc32)CC1,13.9 µM,> 100 µM,> 100 µM,,,GI50 [2]: 2.15 µM
CCCCCCCCCCCCCCCCCCOc1ccccc1CC(=O)OCC[N+]1(C)CCCC1,15.1 µM,42.4 µM,17 µM,,,GI50 [2]: 3 µM
Nc1nc(F)nc2c1ncn2C1OC(CO)C(O)C1O (stereo unspecified),,> 55.5 µM and 46.6 µM,> 100 µM,,,TGI [8]: > 100 µM; GI50 [2]: > 56 µM
OCc1ccc(C2CC(c3ccco3)=NN2c2ccccc2)o1 (stereo unspecified),,,,> 100 µM,> 100 µM,TGI [7]: > 100 µM

# — PubChem BioAssay (NCI)
